Data reported in paper PMC5318439, “The Novel Toll-Like Receptor 2 Agonist SUP3 Enhances Antigen Presentation and T Cell Activation by Dendritic Cells” (Frontiers in Immunology, 2017).
Where a SMILES comes first, the peptide text is derived from it. The star is where a group is joined. X1 = CCCCCCCCCCCCCCNC(=O)OC[C@H](C*)OC(=O)NCCCCCCCCCCCCCC; Palmitoyl = CCCCCCCCCCCCCCCC(=O)*

System: GMDCs
Assay: Cytokine production by GMDCs
Format: cell-based, mice
Settings: 200 nM, 24 h, ELISA; SUP3 versus Pam3
Description: Splenic DCs (5 × 10^5 cells/mL) were stimulated by Pam3 (200 nM), SUP3 (200 nM), or CpG ODN 1668 (20 nM; Adipogen IAX-200-001) in the GM-CSF (20 ng/mL) supplemented medium for indicated periods. Cell culture supernatants were harvested at indicated time points and stored at −40°C. RAW 264.7 cells and GMDCs were stimulated by lipopolysaccharide (LPS) (20 ng/mL; Adipogen IAX-100-013), Pam3, or SUP3 (both at 200 nM) for 24 h. For in vivo administration, Pam3 (2 nmol per mouse), SUP3 (2 nmol per mouse), or LPS (1 µg per mouse) were intravenously (i.v.) injected via tail veins. Serum was obtained through tail vein bleeding and centrifuged after coagulation and stored at −40°C. Cytokines (IL-6, eBioscience 88-7064; TNFα, eBioscience 88-7324; IL-12p40, BioLegend 431604), chemokine (MIP1α, R&D Systems DY450-05), and total IgM (eBioscience, 88-50470) were quantified by ELISA kits following the instructions of manufacturers.
Figure 1 Specificity and activity of novel TLR2 agonist SUP3. (A) Schematic chemical structure of SUP3. (B) Surface expression of TLR2 in wild-type (WT) and Tlr2^−/− RAW 264.7 cell lines. Gray shadows represented isotype control and black lines represented TLR2. […] The production of cytokines IL-6 and TNFα in culture supernatant was determined by ELISA. *p < 0.05, ****p < 0.0001, “n.s.” indicates statistically non-significant.

`CCCCCCCCCCCCCCCC(=O)N[C@@H](CSC[C@@H](COC(=O)NCCCCCCCCCCCCCC)OC(=O)NCCCCCCCCCCCCCC)C(=O)NCC(=O)N[C@@H](CCCCN)C(=O)N[C@@H](CCCCN)C(=O)N[C@@H](CCCCN)C(=O)O` [SUP3, (2S,5S,8S,14R,18R)-2,5,8-tris(4-aminobutyl)-4,7,10,13,21-pentaoxo-14-palmitamido-18-((tetradecylcarbamoyl)oxy)-20-oxa-16-thia-3,6,9,12,22-pentaazahexatriacontan-1-oic acid] (Palmitoyl-C(X1)GKKK-OH) was tested, and the “production of IL-6 and TNFα by GMDCs” value was “comparable”.
